Assay results published in patent US4968792A, “Psychotropic benzisothiazole derivatives” (American Home Products Corporation, priority 1989, dated 1990).

Experiments:
[1] = target: T1, dopamine D-2 receptor (Rattus norvegicus, UniProt P61169); experiment: dopamine D-2 receptor binding (displacement of 3H-spiroperidol, homogenized limbic brain tissue)
T1 construct: from tissue; host or cells: limbic brain tissue, homogenized
Method: High affinity for the dopamine D-2 receptor was established by the standard experimental test procedure of Fields, et al., Brain Res., 136, 578-584 (1977) and Yamamura et al., eds., Neurotransmitter Receptor Binding, Raven Press, N.Y. (1978) wherein homogenized limbic brain tissue is incubated with ^3 H-spiroperiodol and various concentrations of test compound, filtered and washed and shaken with Hydrofluor scintillation cocktail (National Diagnostics) and counted in a Packard 460 CD scintillation counter.

[2] = target: T2, serotonin 5-HT1A receptor (Rattus norvegicus, UniProt P19327); experiment: serotonin 5-HT1A receptor binding (displacement of [3H]8-OHDPAT)
T2 construct: following the procedure of Hall et al., J. Neurochem; 44, 1685 (1985); from tissue
T2 sequence (P19327 1-422): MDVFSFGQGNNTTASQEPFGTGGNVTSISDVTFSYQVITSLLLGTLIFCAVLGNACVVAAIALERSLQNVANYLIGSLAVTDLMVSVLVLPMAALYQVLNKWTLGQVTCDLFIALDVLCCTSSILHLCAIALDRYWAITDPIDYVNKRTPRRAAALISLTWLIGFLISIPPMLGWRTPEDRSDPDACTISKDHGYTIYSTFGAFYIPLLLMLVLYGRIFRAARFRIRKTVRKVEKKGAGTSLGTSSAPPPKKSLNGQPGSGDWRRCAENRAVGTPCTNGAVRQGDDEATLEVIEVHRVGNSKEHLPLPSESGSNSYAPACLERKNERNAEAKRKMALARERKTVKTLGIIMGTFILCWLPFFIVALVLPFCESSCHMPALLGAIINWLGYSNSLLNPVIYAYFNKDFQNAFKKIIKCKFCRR
Description: High affinity for the serotonin 5-HT1A receptor was established by testing the claimed compound's ability to displace [^3 H]8-OHDPAT (dipropylaminotetralin) from the 5-HT1A serotonin receptor following the procedure of Hall et al., J. Neurochem. 44, 1685 (1985). […] The anxiolytic activity of buspirone is believed to be, at least partially, due to its 5-HT1A receptor affinity (Vander Maelen et al., Eur. J. Pharmacol., 129 (1-2) 123-130 (1986).

[3] = conditioned avoidance, Discrete Trial (lever press); type: in vivo, rat (male CD); details: Rattus norvegicus, read-out: Avoidance Block AB50, Discrete Trial
Description: (§1) The antipsychotic properties of the compound of Example 5 were further established by standard pharmacologically accepted procedures involving conditioned avoidance studies in which trained male CD rats (Charles River), 400-500 g. body weight are exposed to a fifteen second warning tone (conditioned stimulus) continued for an additional fifteen seconds accompanied by electric shock. The rat can avoid the electric shock by jumping to an exposed shelf (shelf-jump response). A response during the initial warning tone is considered an avoidance response, while a response during shock delivery is considered an escape response. The shelf-jump response test procedure follows that of Herman et. al., Comm. in Psychopharm., 3, pp. 165-171 (1979). A similar test procedure (Discrete Trial) in which a lever press was substituted for a shelf-jump was also used to establish the activity of the compound of Example 5. The compound was tested over a full dose range and the Avoidance Block activities reported as "AB50 's (mg/kg): Shelf-jump: 6.43 (no CI) i.p., 58.28 (no CI) p.o.; Discrete Trial: 4.80 (2.14-17.66) i.p., 35.35 (no CI) p.o.

[4] = conditioned avoidance, shelf-jump response test; type: in vivo, rat (male CD); details: Rattus norvegicus, no CI, read-out: Avoidance Block AB50, Shelf-jump
Description: as §1

[5] = target: T2, serotonin 5-HT1A receptor; details: standard for anxiolytic activity; cited from earlier work

T1 sequence (P61169 whole entry): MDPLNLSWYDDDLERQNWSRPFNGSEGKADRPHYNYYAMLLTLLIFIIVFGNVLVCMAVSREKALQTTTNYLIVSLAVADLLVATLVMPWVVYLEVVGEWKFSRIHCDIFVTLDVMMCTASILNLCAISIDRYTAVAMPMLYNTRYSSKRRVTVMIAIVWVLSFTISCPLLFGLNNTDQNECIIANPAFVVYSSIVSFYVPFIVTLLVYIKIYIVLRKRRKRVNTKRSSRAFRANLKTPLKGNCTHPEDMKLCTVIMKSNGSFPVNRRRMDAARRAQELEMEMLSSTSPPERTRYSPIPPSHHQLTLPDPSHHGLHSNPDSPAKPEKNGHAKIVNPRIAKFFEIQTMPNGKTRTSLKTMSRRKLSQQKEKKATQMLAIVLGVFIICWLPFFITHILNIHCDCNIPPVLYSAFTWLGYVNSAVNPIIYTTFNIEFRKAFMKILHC

SMILES | inhibition at 1 µM [1] [%] | inhibition at 1 µM [2] [%] | Ki [2] [nM] | also measured
O=C1C2C3C=CC(C4CC34)C2C(=O)N1CCCCN1CCN(c2nsc3ccccc23)CC1 (stereo not shown) [Example 3, 2-[4-[4-(1,2-Benzisothiazol-3-yl)-1-piperazinyl]butyl]-4,4a,5,5a,6,6a-hexahydro-4,6-ethenocycloprop[f]isoindole-1,3(2H,3aH)-dione] | 99 | 100 | – | –
O=C1C2C3C=CC(C4C=CC43)C2C(=O)N1CCCCN1CCN(c2nsc3ccccc23)CC1 (stereo not shown) [Example 4, 2-[4-[4-(1,2-Benzisothiazol-3-yl)-1-piperazinyl]butyl]3a,4,4a,6a,7,7a-hexahydro-4,7-etheno-1H-cyclobut[f]isoindole-1,3(2H)-dione] | 95 | 97 | 0.65 | –
O=C1C2CC(C(=O)N1CCCCN1CCN(c3nsc4ccccc34)CC1)C1C2C2C3CC4C2C4C31 (stereo not shown) [Example 5, Decahydro-3-[4-[4-(1,2-benzisothiazol-3-yl)-1-piperazinyl]butyl]-1,5-methano-6,7,9-metheno-2H-pentaleno[1,2-d]azepine-2,4(3H)-dione] | 95 | 96 | 0.065 | ED50 ([3]; ip, CI in parentheses): 4.8 mg/kg; ED50 ([3]; po, no CI): 35.4 mg/kg; Ki [1]: 0.5 nM; ED50 ([4]; ip): 6.43 mg/kg; ED50 ([4]; po): 58.3 mg/kg
O=C1C2C(C(=O)N1CCCCN1CCN(c3nsc4ccccc34)CC1)C1C3CC4C(C32)C41 (stereo not drawn) [Example 6, (Exo)-octahydro-2-[4-[4-(1,2-benzisothiazol-3-yl)-1-piperazinyl]butyl]-4,5,7-metheno-1H-pentaleno[1,2-c]pyrrole-1,3(1H)-dione] | 100 | 100 | – | –
O=C1C2C(C(=O)N1CCCCN1CCN(c3nsc4ccccc34)CC1)C1C3CC4C(C32)C41 (stereo not drawn) [Example 7, (Endo)-octahydro-2-[4-[4-(1,2-benzisothiazol-3-yl)-1-piperazinyl]butyl]-4,5,7-metheno-1H-pentaleno[1,2-c]pyrrole-1,3(2H)-dione] | – | – | 0.4 | D-2 Binding (Inhibition at 1 μM) ([1]; at 1 μM): 100%; 5-HT1A Binding (Inhibition at 1 μM) ([2]; at 1 μM): 100%
O=C1CC2(CCCC2)CC(=O)N1CCCCN1CCN(c2ncccn2)CC1 [buspirone] | – | – | – | affinity for the 5-HT1A serotonin receptor subtype (in words) [5]: high affinity
